According to ChEMBL document CHEMBL1629666, “Quinolone resistance in Neisseria gonorrhoeae: rapid genotyping of quinolone resistance-determining regions in gyrA and parC genes by melting curve analysis predicts susceptibility” (2009):
≈ marks a conversion by molar mass, not a printed value.

How the values were obtained:
Neisseria gonorrhoeae [1] = assay: Antimicrobial activity against Neisseria gonorrhoeae isolate IPC-NG1 harboring gyrA S91F, D95Y and parC E91G mutant gene by Etest
Neisseria gonorrhoeae [2] = assay: Antimicrobial activity against Neisseria gonorrhoeae 98G0872 harboring gyrA S91F, D95N and parC E91K mutant gene by Etest
Neisseria gonorrhoeae [3] = assay: Antimicrobial activity against Neisseria gonorrhoeae 96G0142 harboring gyrA S91Y and parC E91Q mutant gene by Etest
Neisseria gonorrhoeae [4] = assay: Antimicrobial activity against Neisseria gonorrhoeae 91G0622 harboring gyrA D95N mutant gene by Etest
Neisseria gonorrhoeae [5] = assay: Antimicrobial activity against Neisseria gonorrhoeae WHO. M harboring gyrA S91F and D95G mutant gene by Etest
Neisseria gonorrhoeae [6] = assay: Antimicrobial activity against Neisseria gonorrhoeae 07 QA 06 harboring gyrA S91F mutant gene by Etest
Neisseria gonorrhoeae [7] = assay: Antimicrobial activity against Neisseria gonorrhoeae WHO. O by Etest
Neisseria gonorrhoeae [8] = assay: Antimicrobial activity against Neisseria gonorrhoeae isolate IPC-NG14 harboring gyrA S91F and D95A mutant gene by Etest
Neisseria gonorrhoeae [9] = assay: Antimicrobial activity against Neisseria gonorrhoeae WHO. C by Etest
Neisseria gonorrhoeae [10] = assay: Antimicrobial activity against Neisseria gonorrhoeae 97G0109 harboring gyrA S91F, D95G and parC D86N mutant gene by Etest
Neisseria gonorrhoeae [11] = assay: Antimicrobial activity against Neisseria gonorrhoeae 92G0551 harboring gyrA S91Y mutant gene by Etest
Neisseria gonorrhoeae [12] = assay: Antimicrobial activity against Neisseria gonorrhoeae isolate IPC-NG2 harboring gyrA S91F, D95Y and parC E91G mutant gene by Etest
Neisseria gonorrhoeae [13] = assay: Antimicrobial activity against Neisseria gonorrhoeae isolate IPC-NG18 harboring gyrA S91F, D95A and parC S87N mutant gene by Etest
Neisseria gonorrhoeae [14] = assay: Antimicrobial activity against Neisseria gonorrhoeae isolate IPC-NG13 harboring gyrA S91F, D95A and parC S87N and E91Q mutant gene by Etest
Neisseria gonorrhoeae [15] = assay: Antimicrobial activity against Neisseria gonorrhoeae 91G0316 harboring gyrA S91F mutant gene by Etest
Neisseria gonorrhoeae [16] = assay: Antimicrobial activity against Neisseria gonorrhoeae 98G0959 harboring gyrA D95N mutant gene by Etest
Neisseria gonorrhoeae [17] = assay: Antimicrobial activity against Neisseria gonorrhoeae isolate IPC-NG7 harboring gyrA S91F, D95G and parC S87N and E91Q mutant gene by Etest
Neisseria gonorrhoeae [18] = assay: Antimicrobial activity against Neisseria gonorrhoeae 95G0142 harboring gyrA S91F, D95N and parC S87R mutant gene by Etest
Neisseria gonorrhoeae [19] = assay: Antimicrobial activity against Neisseria gonorrhoeae WHO. G harboring gyrA S91F mutant gene by Etest
Neisseria gonorrhoeae [20] = assay: Antimicrobial activity against Neisseria gonorrhoeae isolate IPC-NG16 harboring gyrA S91F, D95A and parC S87R mutant gene by Etest
Neisseria gonorrhoeae [21] = assay: Antimicrobial activity against Neisseria gonorrhoeae isolate IPC-NG9 harboring gyrA S91F, D95A and parC S87N and E91Q mutant gene by Etest
Neisseria gonorrhoeae [22] = assay: Antimicrobial activity against Neisseria gonorrhoeae 98G0798 harboring gyrA S91F mutant gene by Etest
Neisseria gonorrhoeae [23] = assay: microbe, parasite or virus in culture; conditions: isolate 108 175 340
Description: Antimicrobial activity against Neisseria gonorrhoeae isolate 108 175 340 harboring gyrA S91F, D95G and parC E91G mutant gene by Etest

Neisseria gonorrhoeae [24] = assay: Antimicrobial activity against Neisseria gonorrhoeae isolate IPC-NG5 harboring gyrA S91F, D95A and parC E91G mutant gene by Etest
Neisseria gonorrhoeae [25] = assay: Antimicrobial activity against Neisseria gonorrhoeae 97G0319 harboring gyrA D95G mutant gene by Etest
Neisseria gonorrhoeae [26] = assay: Antimicrobial activity against Neisseria gonorrhoeae 93G0065 harboring gyrA D95N mutant gene by Etest
Neisseria gonorrhoeae [27] = assay: Antimicrobial activity against Neisseria gonorrhoeae 97G0398 harboring gyrA S91F, D95G and parC S88P mutant gene by Etest
Neisseria gonorrhoeae [28] = assay: Antimicrobial activity against Neisseria gonorrhoeae isolate IPC-NG3 harboring gyrA S91F and D95A mutant gene by Etest
Neisseria gonorrhoeae [29] = assay: Antimicrobial activity against Neisseria gonorrhoeae 07 QA 02 by Etest
Neisseria gonorrhoeae [30] = assay: Antimicrobial activity against Neisseria gonorrhoeae WHO. P by Etest
Neisseria gonorrhoeae [31] = assay: Antimicrobial activity against Neisseria gonorrhoeae 98G0867 harboring gyrA S91F, D95G and parC S87R mutant gene by Etest
Neisseria gonorrhoeae [32] = assay: Antimicrobial activity against Neisseria gonorrhoeae isolate IPC-NG19 harboring gyrA S91F, D95A and parC S87N mutant gene by Etest
Neisseria gonorrhoeae [33] = assay: Antimicrobial activity against Neisseria gonorrhoeae isolate IPC-NG6 harboring gyrA S91F, D95Y and parC E91G mutant gene by Etest
Neisseria gonorrhoeae [34] = assay: Antimicrobial activity against Neisseria gonorrhoeae WHO. L harboring gyrA S91F, D95N and parC D86N and S88P mutant gene by Etest
Neisseria gonorrhoeae [35] = assay: Antimicrobial activity against Neisseria gonorrhoeae isolate IPC-NG10 harboring gyrA S91F, D95G and parC S87R mutant gene by Etest
Neisseria gonorrhoeae [36] = assay: Antimicrobial activity against Neisseria gonorrhoeae isolate IPC-NG8 by Etest

O=C(O)c1cn(C2CC2)c2cc(N3CCNCC3)c(F)cc2c1=O [CIPROFLOXACIN]
MIC (Neisseria gonorrhoeae [1]): > 32 µg/mL
MIC (Neisseria gonorrhoeae [2]): 8 µg/mL (≈ 24.1 µM)
MIC (Neisseria gonorrhoeae [3]): 1 µg/mL (≈ 3.02 µM)
MIC (Neisseria gonorrhoeae [4]): 0.125 µg/mL (≈ 0.377 µM)
MIC (Neisseria gonorrhoeae [5]): 2 µg/mL (≈ 6.04 µM)
MIC (Neisseria gonorrhoeae [6]): 0.38 µg/mL (≈ 1.15 µM)
MIC (Neisseria gonorrhoeae [7]): 0.016 µg/mL (≈ 0.0483 µM)
MIC (Neisseria gonorrhoeae [8]): 3 µg/mL (≈ 9.05 µM)
MIC (Neisseria gonorrhoeae [9]): 0.016 µg/mL (≈ 0.0483 µM)
MIC (Neisseria gonorrhoeae [10]): 2 µg/mL (≈ 6.04 µM)
MIC (Neisseria gonorrhoeae [11]): 0.5 µg/mL (≈ 1.51 µM)
MIC (Neisseria gonorrhoeae [12]): > 32 µg/mL
MIC (Neisseria gonorrhoeae [13]): > 32 µg/mL
MIC (Neisseria gonorrhoeae [14]): 12 µg/mL (≈ 36.2 µM)
MIC (Neisseria gonorrhoeae [15]): 0.5 µg/mL (≈ 1.51 µM)
MIC (Neisseria gonorrhoeae [16]): 0.25 µg/mL (≈ 0.754 µM)
MIC (Neisseria gonorrhoeae [17]): > 32 µg/mL
MIC (Neisseria gonorrhoeae [18]): 32 µg/mL (≈ 96.6 µM)
MIC (Neisseria gonorrhoeae [19]): 0.25 µg/mL (≈ 0.754 µM)
MIC (Neisseria gonorrhoeae [20]): 1.5 µg/mL (≈ 4.53 µM)
MIC (Neisseria gonorrhoeae [21]): 16 µg/mL (≈ 48.3 µM)
MIC (Neisseria gonorrhoeae [22]): 1 µg/mL (≈ 3.02 µM)
MIC (Neisseria gonorrhoeae [23]): 4 µg/mL (≈ 12.1 µM)
MIC (Neisseria gonorrhoeae [24]): > 32 µg/mL
MIC (Neisseria gonorrhoeae [25]): 0.125 µg/mL (≈ 0.377 µM)
MIC (Neisseria gonorrhoeae [26]): 0.125 µg/mL (≈ 0.377 µM)
MIC (Neisseria gonorrhoeae [27]): 2 µg/mL (≈ 6.04 µM)
MIC (Neisseria gonorrhoeae [28]): 3 µg/mL (≈ 9.05 µM)
MIC (Neisseria gonorrhoeae [29]): 0.023 µg/mL (≈ 0.0694 µM)
MIC (Neisseria gonorrhoeae [30]): 0.016 µg/mL (≈ 0.0483 µM)
MIC (Neisseria gonorrhoeae [31]): 8 µg/mL (≈ 24.1 µM)
MIC (Neisseria gonorrhoeae [32]): > 32 µg/mL
MIC (Neisseria gonorrhoeae [33]): > 32 µg/mL
MIC (Neisseria gonorrhoeae [34]): 16 µg/mL (≈ 48.3 µM)
MIC (Neisseria gonorrhoeae [35]): > 32 µg/mL
MIC (Neisseria gonorrhoeae [36]): 0.016 µg/mL (≈ 0.0483 µM)
